From patent publication US10278950B2, “Therapeutic agents containing cannabis flavonoid derivative for ocular disorders” (priority 2015, dated 2019)

These compounds were tested against T1, BIKE (BMP2K) kinase (Homo sapiens, UniProt Q9NSY1) (assay: Kinase inhibition assay (competition binding assay)). Conditions: qualitative statement; dose response curve only in FIG. 3, no values given.
T1 construct: made in house
Protocol: Cannabis flavonoids and their analogs were subjected to kinase inhibition assay. The compounds were first screened at a single concentration of 10 μM in the primary assay. Compounds inhibiting at least 70% of specific kinases were subjected to further screening to determine kd values. To determine the kd values, competition binding assays were established, authenticated and executed as described previously (Fabian et al., 2005, Karaman et al., 2008). For most assays, kinases were fused to T7 phage strains (Fabian et al. 2005) and for the other assays, kinases were produced in HEK-293 cells after which they were tagged with DNA for quantitative PCR detection (data not shown). In general, full-length constructs were used for small, single domain kinases, and catalytic domain constructs for large multi-domain kinases. The binding assays utilized streptavidin-coated magnetic beads treated with biotinylated small molecule ligands for 30 minutes at room temperature which generated affinity resins for the kinase assays. The liganded beads were blocked with excess biotin and washed with blocking buffer (SeaBlock (Pierce), 1% BSA, 0.05% Tween 20, 1 mM DTT) to remove unbound ligand and to reduce non-specific phage binding. Binding reactions were assembled by combining kinases, liganded affinity beads, and test compounds in 1× binding buffer (20% SeaBlock, 0.17×PBS, 0.05% Tween 20, 6 mM DTT). Test compounds were prepared as 40× stocks in 100% DMSO and diluted directly into the assay (Final DMSO concentration=2.5%). All reactions were performed in polypropylene 384-well plates in a final volume of 0.04 ml. The assay plates were incubated at room temperature with shaking for 1 hour and the affinity beads were washed with wash buffer (1×PBS, 0.05% Tween 20). The beads were then re-suspended in elution buffer (1×PBS, 0.05% Tween 20, 0.5 μM non-biotinylated affinity ligand) and incubated at room temperature with shaking for 30 minutes. The kinase concentration in the eluates was measured by quantitative PCR. Kd values were determined using a standard dose response curve using the hill equation. Curves were fitted using a non-linear least square fit with the Levenberg-Marquardt algorithm.

T1 sequence (Q9NSY1 whole entry): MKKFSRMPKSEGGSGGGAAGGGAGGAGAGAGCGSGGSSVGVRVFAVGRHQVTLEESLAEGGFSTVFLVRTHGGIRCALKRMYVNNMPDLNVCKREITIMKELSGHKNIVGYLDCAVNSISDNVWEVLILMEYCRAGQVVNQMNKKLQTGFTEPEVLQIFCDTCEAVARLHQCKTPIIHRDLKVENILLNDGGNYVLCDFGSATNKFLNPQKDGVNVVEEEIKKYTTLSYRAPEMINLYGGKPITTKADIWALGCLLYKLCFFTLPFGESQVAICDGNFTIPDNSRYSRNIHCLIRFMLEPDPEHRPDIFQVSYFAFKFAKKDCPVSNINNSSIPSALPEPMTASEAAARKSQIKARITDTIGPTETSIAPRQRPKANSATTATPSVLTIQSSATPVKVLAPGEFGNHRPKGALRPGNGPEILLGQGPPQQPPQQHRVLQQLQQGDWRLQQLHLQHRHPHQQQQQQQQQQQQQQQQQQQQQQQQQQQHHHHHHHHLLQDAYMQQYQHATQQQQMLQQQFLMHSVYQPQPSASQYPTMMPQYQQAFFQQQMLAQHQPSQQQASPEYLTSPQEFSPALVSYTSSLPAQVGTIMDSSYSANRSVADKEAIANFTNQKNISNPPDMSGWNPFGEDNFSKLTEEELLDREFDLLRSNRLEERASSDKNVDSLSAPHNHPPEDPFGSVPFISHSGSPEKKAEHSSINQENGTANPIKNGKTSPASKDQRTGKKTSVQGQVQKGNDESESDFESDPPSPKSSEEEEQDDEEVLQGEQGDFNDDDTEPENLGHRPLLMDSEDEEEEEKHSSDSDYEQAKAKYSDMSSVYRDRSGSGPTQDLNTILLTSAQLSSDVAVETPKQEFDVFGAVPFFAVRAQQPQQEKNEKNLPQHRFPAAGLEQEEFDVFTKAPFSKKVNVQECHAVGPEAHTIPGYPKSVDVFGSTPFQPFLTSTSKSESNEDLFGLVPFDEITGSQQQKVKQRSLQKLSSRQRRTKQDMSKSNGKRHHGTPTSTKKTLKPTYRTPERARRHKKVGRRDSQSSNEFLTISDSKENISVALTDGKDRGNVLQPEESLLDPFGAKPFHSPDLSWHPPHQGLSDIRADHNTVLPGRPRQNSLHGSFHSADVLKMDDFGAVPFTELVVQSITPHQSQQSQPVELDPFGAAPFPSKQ

Row | Compound | ability to inhibit the BMP2K kinase
1 | COc1cc(-c2cc(=O)c3c(O)c(C/C=C(\C)CCC=C(C)C)c(O)cc3o2)ccc1O [cannflavin A] | demonstrated ability to inhibit
2 | COc1cc(-c2cc(=O)c3c(O)c(CC=C(C)C)c(O)cc3o2)ccc1O [cannflavin B] | demonstrated ability to inhibit
3 | COc1cc(-c2cc(=O)c3c(O)cc(O)c(C/C=C(\C)CCC=C(C)C)c3o2)ccc1O [cannflavin C] | demonstrated ability to inhibit
4 | COc1cc(-c2cc(=O)c3c(O)cc(O)c(CC=C(C)C)c3o2)ccc1O [isocannflavin B] | demonstrated ability to inhibit
